Measurements published in US20230146795A1, “ENHANCEMENT OF ANTI-TUMOR ACTIVITY OF SHP2 INHIBITOR PYRIMIDINONE IN COMBINATION WITH NOVEL CANCER MEDICINES IN CANCERS” (TAIHO PHARMACEUTICAL CO., LTD., priority 2020, published 2023).

Tests used:
Type in all cases: cell-based
[1] = test system: NCI-H358; experiment: Anti-proliferation assay (CellTiter-Glo 2.0), combination index, NCI-H358
Procedure, shortened: (§1)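 Cells were seeded at 500 cells/well in medium with 10% FBS and exposed to agents at 8 concentrations including 0 nM, for 3 days at 37° C under 5% CO2. Survival was read by CellTiter-Glo 2.0 luminescence, and combination index was determined at each combined concentration.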

[2] = test system: NCI-H23; experiment: Anti-proliferation assay (CellTiter-Glo 2.0), combination index, NCI-H23
Protocol: (§2) Cell lines were obtained from ATCC or Health Science Research Resources Bank.
Each cell lines were collected by ordinary method, then suspended in indicated medium containing 10% fetal bovine serum in table 3. The number of cells seeded per well was set to 500 cells/20 μL. […] The concentration of each anti-cancer reagents set to 8 concentrations including 0 nM. After adding the medicine to the cells, the cells were further incubated at 37° C. for 3 days under 5% CO2. Cell survival rates were calculated by adding 20 μL of CellTiter-Glo(registered trademark) 2. 0 (Promega) solution to each well, incubating the cells at room temperature for 10 minutes, and then measuring the chemiluminescence intensity of each well using a plate reader (ARVO).
(§3) A combination index (CI) value at each combined concentration of the medicines was determined.

[3] = test system: MV-4-11; experiment: Anti-proliferation assay (CellTiter-Glo 2.0), combination index, MV-4-11
Protocol: as §2
(§4) 384 well culture plate (781086, Greiner Bio-One International) was used for cell survival rate measurement assay. Each cell lines were collected by ordinary method, then suspended in indicated medium containing 10% fetal bovine serum in table 3. The number of cells seeded per well was set to 500 cells/20 μL. After incubation at 37° C. for 24 hours under 5% CO2, Compound 1 and additional compound having an antitumor effect or a vehicle (DMSO) was added to each well by using D300e Digital Dispenser (Tecan). The concentration of Compound 1 was set to 10 concentrations. The concentration of each anti-cancer reagents set to 8 concentrations including 0 nM. After adding the medicine to the cells, the cells were further incubated at 37° C. for 3 days under 5% CO2. Cell survival rates were calculated by adding 20 μL of CellTiter-Glo(registered trademark) 2. 0 (Promega) solution to each well, incubating the cells at room temperature for 10 minutes, and then measuring the chemiluminescence intensity of each well using a plate reader (ARVO).
as §3

[4] = test system: RT4; experiment: Anti-proliferation assay (CellTiter-Glo 2.0), combination index, RT4
Procedure, shortened: as §1

[5] = test system: RMG-I; experiment: Anti-proliferation assay (CellTiter-Glo 2.0), combination index, RMG-I
Protocol: as §2, §4, §3

[6] = test system: MKN45; experiment: Anti-proliferation assay (CellTiter-Glo 2.0), combination index, MKN45
Procedure, shortened: as §1

[7] = Compound 1 41.2 + combination drug 41.2 nmol/L (1:1)
[8] = Compound 1 123 + combination drug 123 nmol/L (1:1)
[9] = Compound 1 370 + combination drug 370 nmol/L (1:1)
[10] = Compound 1 1110 + combination drug 1110 nmol/L (1:1)
[11] = Compound 1 3330 + combination drug 3330 nmol/L (1:1)
[12] = Compound 1 123 + combination drug 370 nmol/L (1:3)
[13] = Compound 1 370 + combination drug 1110 nmol/L (1:3)
[14] = Compound 1 1110 + combination drug 3330 nmol/L (1:3)
[15] = Compound 1 3330 + combination drug 10000 nmol/L (1:3)
[16] = Compound 1:combination drug molar ratio 1:3
[17] = Compound 1 13.7 + combination drug 370 nmol/L (1:27)
[18] = Compound 1 41.2 + combination drug 1110 nmol/L (1:27)
[19] = Compound 1 123 + combination drug 10000 nmol/L (1:81)
[20] = Compound 1:combination drug molar ratio 1:81
[21] = Compound 1 13.7 + combination drug 111 nmol/L (1:8.1)
[22] = Compound 1 41.2 + combination drug 333 nmol/L (1:8.1)
[23] = Compound 1 123 + combination drug 1000 nmol/L (1:8.1)
[24] = Compound 1 41.2 + combination drug 111 nmol/L (1:2.7)
[25] = Compound 1 123 + combination drug 333 nmol/L (1:2.7)
[26] = Compound 1 370 + combination drug 1000 nmol/L (1:2.7)
[27] = Compound 1 1110 + combination drug 3000 nmol/L (1:2.7)
[28] = Compound 1:combination drug molar ratio 1:2.7
[29] = Compound 1 1.52 + combination drug 4.12 nmol/L (1:2.7)
[30] = Compound 1 13.7 + combination drug 37.0 nmol/L (1:2.7)
[31] = Compound 1 4.57 + combination drug 111 nmol/L (1:24)
[32] = Compound 1 13.7 + combination drug 333 nmol/L (1:24)
[33] = Compound 1 41.2 + combination drug 1000 nmol/L (1:24)
[34] = Compound 1 13.7 + combination drug 123 nmol/L (1:9)
[35] = Compound 1 41.2 + combination drug 370 nmol/L (1:9)
[36] = Compound 1 123 + combination drug 1110 nmol/L (1:9)
[37] = Compound 1 4.57 + combination drug 123 nmol/L (1:27)
[38] = Compound 1 370 + combination drug 10000 nmol/L (1:27)
[39] = Compound 1 13.7 + combination drug 41.2 nmol/L (1:3)
[40] = Compound 1 41.2 + combination drug 123 nmol/L (1:3)
[41] = Compound 1 41.2 + combination drug 3330 nmol/L (1:81)
[42] = Compound 1 1.52 nmol/L + Abemaciclib 41.2 nmol/L, molar ratio 1:27
[43] = Compound 1 4.57 nmol/L + Abemaciclib 123 nmol/L, molar ratio 1:27
[44] = Compound 1 13.7 nmol/L + Abemaciclib 370 nmol/L, molar ratio 1:27
[45] = Compound 1 41.2 nmol/L + Abemaciclib 1110 nmol/L, molar ratio 1:27
[46] = Compound 1 123 nmol/L + Abemaciclib 3330 nmol/L, molar ratio 1:27
[47] = combination effect, Compound 1 + Abemaciclib, molar ratio 1:27
[48] = Compound 1 13.7 nmol/L + Abemaciclib 41.2 nmol/L, molar ratio 1:3
[49] = Compound 1 41.2 nmol/L + Abemaciclib 123 nmol/L, molar ratio 1:3
[50] = Compound 1 123 nmol/L + Abemaciclib 370 nmol/L, molar ratio 1:3
[51] = Compound 1 370 nmol/L + Abemaciclib 1110 nmol/L, molar ratio 1:3
[52] = Compound 1 1110 nmol/L + Abemaciclib 3330 nmol/L, molar ratio 1:3
[53] = Compound 1 3330 nmol/L + Abemaciclib 10000 nmol/L, molar ratio 1:3
[54] = Compound 1 4.57 + combination drug 1.37 nmol/L (1:0.3)
[55] = Compound 1 13.7 + combination drug 4.12 nmol/L (1:0.3)
[56] = Compound 1 41.2 + combination drug 12.3 nmol/L (1:0.3)
[57] = Compound 1 123 + combination drug 37.0 nmol/L (1:0.3)
[58] = Compound 1 370 + combination drug 111 nmol/L (1:0.3)

## CN(C)C/C=C/C(=O)Nc1cc2c(Nc3ccc(F)c(Cl)c3)ncnc2cc1O[C@H]1CCOC1 [Afatinib]
[1]; [7]
  CI: 0.143
  Fa: 0.4605
[1]; [8]
  CI: 0.264
  Fa: 0.5395
[1]; [9]
  CI: 0.426
  Fa: 0.6382
[1]; [10]
  CI: 0.686
  Fa: 0.7270
[1]; [11]
  CI: 0.526
  Fa: 0.8696
[2]; [12]
  CI: 0.776
  Fa: 0.1325
[2]; [13]
  CI: 0.397
  Fa: 0.3961
[2]; [14]
  CI: 0.400
  Fa: 0.8058
[2]; [15]
  CI: 0.471
  Fa: 0.9563
[2]; [16]
  Description (combinatory effect by CI): Synergy (0.3-0.7)
[3]; [17]
  Fa: 0.6791
[3]; [18]
  Fa: 0.9244
[4]; [19]
  CI: 0.471
  Fa: 0.9986
[4]; [20]
  Description (combinatory effect by CI): Synergy (0.3-0.7)

## COc1cc(N2CCC(N3CCN(C)CC3)CC2)ccc1Nc1ncc(Cl)c(Nc2ccccc2P(C)(C)=O)n1 [Brigatinib]
[5]; [21]
  CI: 0.462
  Fa: 0.2251
[5]; [22]
  CI: 0.493
  Fa: 0.4905
[5]; [23]
  CI: 0.963
  Fa: 0.6133
[5]; Compound 1:combination drug molar ratio 1:8.1
  Description (combinatory effect by CI): Synergy (0.3-0.7)
[1]; [24]
  CI: 0.885
  Fa: 0.3039
[1]; [25]
  CI: 0.293
  Fa: 0.6017
[1]; [26]
  CI: 0.506
  Fa: 0.7788
[1]; [27]
  CI: 0.871
  Fa: 0.9063
[2]; [24]
  CI: 0.689
  Fa: 0.0998
[2]; [25]
  CI: 0.353
  Fa: 0.2711
[2]; [26]
  CI: 0.447
  Fa: 0.5739
[2]; [27]
  CI: 0.614
  Fa: 0.8319
[2]; [28]
  Description (combinatory effect by CI): Synergy (0.3-0.7)
[3]; [29]
  CI: 0.844
  Fa: 0.3537
[3]; [30]
  CI: 0.430
  Fa: 0.8161
[3]; [24]
  CI: 0.286
  Fa: 0.9418
[3]; [25]
  CI: 0.503
  Fa: 0.9637
[3]; [26]
  CI: 0.933
  Fa: 0.9768
[3]; [27]
  CI: 0.966
  Fa: 0.9918
[4]; [31]
  CI: 0.536
  Fa: 0.2537
[4]; [32]
  CI: 0.558
  Fa: 0.3969
[4]; [33]
  CI: 0.459
  Fa: 0.6106
[4]; Compound 1:combination drug molar ratio 1:24
  Description (combinatory effect by CI): Synergy (0.3-0.7)

## COC(=O)c1ccc2c(c1)NC(=O)/C2=C(\Nc1ccc(N(C)C(=O)CN2CCN(C)CC2)cc1)c1ccccc1 [Nintedanib]
[5]; [34]
  CI: 0.772
  Fa: 0.2678
[5]; [35]
  CI: 0.477
  Fa: 0.4576
[5]; [36]
  CI: 0.683
  Fa: 0.6821
[5]; Compound 1:combination drug molar ratio 1:9
  Description (combinatory effect by CI): Synergy (0.3-0.7)
[1]; [37]
  CI: 0.837
  Fa: 0.0649
[1]; [17]
  CI: 0.576
  Fa: 0.1639
[1]; [18]
  CI: 0.580
  Fa: 0.3485
[1]; [38]
  CI: 0.858
  Fa: 0.9756
[1]; Compound 1:combination drug molar ratio 1:27
  Description (combinatory effect by CI): Synergy (0.3-0.7)
[3]; [39]
  CI: 0.479
  Fa: 0.7111
[3]; [40]
  CI: 0.370
  Fa: 0.9278
[3]; [12]
  CI: 0.706
  Fa: 0.9603
[3]; [13]
  CI: 0.617
  Fa: 0.9933
[3]; [14]
  CI: 0.770
  Fa: 0.9982
[3]; [16]
  Description (combinatory effect by CI): Synergy (0.3-0.7)
[6]; [41]
  CI: 0.925
  Fa: 0.5044
[6]; [19]
  CI: 0.418
  Fa: 0.8817
[6]; [20]
  Description (combinatory effect by CI): Synergy (0.3-0.7)

## C[C@@H](Oc1cc(-c2cnn(C3CCNCC3)c2)cnc1N)c1c(Cl)ccc(F)c1Cl [Crizotinib]
[2]; [14]
  CI: 0.939
  Fa: 0.5445
[2]; [15]
  CI: 0.765
  Fa: 0.8672

## CCN1CCN(Cc2ccc(Nc3ncc(F)c(-c4cc(F)c5nc(C)n(C(C)C)c5c4)n3)nc2)CC1 [Abemaciclib]
[5]; [42]
  CI: 0.724
  Fa: 0.1493
[5]; [43]
  CI: 0.606
  Fa: 0.2479
[5]; [44]
  CI: 0.357
  Fa: 0.4570
[5]; [45]
  CI: 0.455
  Fa: 0.5937
[5]; [46]
  CI: 0.830
  Fa: 0.6711
[5]; [47]
  Description: Synergy (0.3-0.7)
[1]; [48]
  CI: 0.638
  Fa: 0.1857
[1]; [49]
  CI: 0.337
  Fa: 0.3529
[1]; [50]
  CI: 0.187
  Fa: 0.5769
[1]; [51]
  CI: 0.189
  Fa: 0.7183
[1]; [52]
  CI: 0.455
  Fa: 0.7441
[1]; [53]
  CI: 0.025
  Fa: 0.9724
[2]; [51]
  CI: 0.292
  Fa: 0.3181
[2]; [52]
  CI: 0.420
  Fa: 0.5212
[2]; [53]
  CI: 0.031
  Fa: 0.9964
[3]; [43]
  CI: 0.592
  Fa: 0.5416
[3]; [44]
  CI: 0.494
  Fa: 0.8419
[3]; [45]
  CI: 0.654
  Fa: 0.9407
[3]; [46]
  CI: 0.951
  Fa: 0.9781
[3]; [47]
  Description: Synergy (0.3-0.7)
[6]; [43]
  CI: 0.665
  Fa: 0.1096
[6]; [45]
  CI: 0.647
  Fa: 0.5496
[6]; [46]
  CI: 0.698
  Fa: 0.7785
[6]; [47]
  Description: Synergy (0.3-0.7)

## CCc1nc(C(N)=O)c(Nc2ccc(N3CCC(N4CCN(C)CC4)CC3)c(OC)c2)nc1NC1CCOCC1 [Gilteritinib]
[2]; [25]
  CI: 0.540
  Fa: 0.3005
[2]; [26]
  CI: 0.666
  Fa: 0.6542
[2]; [28]
  Description (combinatory effect by CI): Synergy (0.3-0.7)
[3]; [54]
  CI: 0.817
  Fa: 0.5753
[3]; [55]
  CI: 0.235
  Fa: 0.8986
[3]; [56]
  CI: 0.189
  Fa: 0.9647
[3]; [57]
  CI: 0.354
  Fa: 0.9763
[3]; [58]
  CI: 0.862
  Fa: 0.9802
